This assay concerns 885512-296-R-J2-PDC complex spheroid viability. Briefly: Anticancer human tumor 885512-296-R-J2-PDC patient-derived breast carcinoma cell line growth inhibition [GQUAD]. To be noted: for viability, T/C: stronger effect = lower value. An excerpt: DNA G-quadruplex Stabilizer Agents in Combinations in Complex Spheroids
A high-throughput screen of multi-cell type tumor spheroids was designed to identify active combinations of DNA G-quadruplex stabilizer agents and targeted small molecules. Complex spheroids include a stromal component modeled by human endothelial cells (HUVEC) and fibroblasts modeled by human mesenchymal stem cells (MSCs). The concentration ranges selected for each drug and investigational agent were based upon clinically achievable concentrations if the clinical Cmax of the agent was known.
Compounds. The drugs and investigational agents: pidnarulex (CX-5461; NSC782164), APTO-253 (NSC789042), BRACO-19 (NSC847499), peposertib (NSC802822), ceralasertib (NSC780249), elimusertib (NSC800525), camonsertib (NSC841442), AZD-1390 (NSC803789), olaparib (NSC753686), talazoparib (NSC767125), ART-558 (NSC835418), sotorasib (NSC818433), MRTX-1133 (NSC836407), SN-38 (NSC673596), topotecan (NSC609699), etoposide (NSC141540), doxorubicin (NSC123127), gemcitabine (NSC613327), 5-fluorouracil (NSC19893), paclitaxel (NSC125973), vemurafenib (NSC761431), panobinostat (NSC761190), R-306465 (JNJ-16241199; NSC773264), adavosertib (NSC754352), TP-3654 (NSC805149), carboplatin (NSC241240), KSQ-4279 (NSC840948), and staurosporine (NSC755774) were obtained from the National Cancer Institute (NCI) Developmental Therapeutics Program Chemical Repository (34). The FDA-approved anticancer drug set is available from the NCI Developmental Therapeutics Program. […] The stock solutions were prepared in dimethyl sulfoxide (DMSO, Sigma-Aldrich, St. Louis, MO, cat. D2650) at 800-fold the tested concentration and stored at -70 degrees C prior to their use. All drugs and investigational agents were tested over a range starting from a high concentration at or near the clinical Cmax and decreasing in half-log increments. If the clinical Cmax for an agent had not been determined, the highest concentration tested was 10 microM.
2.3 Cell Culture. All cells were maintained in an incubator at 37 degrees C and 5% CO2 with 95% humidity. The PDC lines were cultured according to standard operating procedures established by the NCI PDMR. All PDCs were thawed and cultured in Matrigel-coated flasks prepared with a working solution of 1X Ham's F-12 nutrient mix, without supplementation (Invitrogen, cat. 11765054), 100 U/mL penicillin-streptomycin (Invitrogen, cat. 15140122), and 2.5% Matrigel (Corning Inc., cat. 354248) for the first three passages. The 857933-349-R-J2-PDC line was cultured in 6C/Colon 1B media, which includes advanced DMEM/F-12 (Thermo Fisher Scientific, cat. 12634028), 10 mM HEPES (Thermo Fisher Scientific, cat. 15630080), 1X GlutaMAX supplement (Thermo Fisher Scientific, cat. 35050061), 0.1 mg/mL primocin (InvivoGen, cat. ant-pm-2), 10% defined fetal bovine serum, heat inactivated (HyClone Laboratories Inc., cat. SH30070.03HI), 50% L-WRN conditioned media (ATCC, cat. CRL-3276), 1.25 mM N-Acetyl-L-cysteine (Sigma-Aldrich, cat. A9165), 10 mM nicotinamide (Sigma-Aldrich, cat. N0636), 1X B-27 supplement (Thermo Fisher Scientific, cat. 17504044), 1X N-2 supplement (Thermo Fisher Scientific, cat. 17502048), 10 microM Y-27632 dihydrochloride (Tocris Bioscience, cat. 1254), and 50 ng/mL human EGF recombinant protein (Thermo Fisher Scientific, cat. PHG0311). The 485176-168-R4-J1-PDC line was cultured in Panc media, which includes all 6C/Colon 1B media components plus 100 ng/mL human FGF-10 (Thermo Fisher Scientific, cat. 100-26), 500 nM SB-431542 (Selleckchem, cat. S1067), and gastrin (Tocris, cat. 3006).
[…]

Our source for the viability, T/C and IC50 values is PubChem BioAssay AID2060490 (Molecular Pharmacology Branch, DTP, NCI, 2025).

“And” between values parts separate entries of the source, which are not always exact repeats. Equal entries are not always repeated.
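Also: spheroids exposed to the compounds for one week.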
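For viability, T/C in this document: percent of tumor spheroid viability relative to DMSO vehicle control wells.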

Take `C#Cc1c(F)ccc2cc(O)cc(-c3ncc4c(N5CC6CCC(C5)N6)nc(OCC56CCCN5CC(F)C6)nc4c3F)c12` (centres undefined): the viability, T/C runs as follows: (compound 0.0316 µM) 107% and 90.4% and 97.3%; (compound 0.1 µM) 97.7% and 92% and 97.9%; (compound 0.316 µM) 109% and 86.7% and 97.7%; (compound 1 µM) 90.1% and 70.5% and 98.3%; (compound 3.16 µM) 106% and 14% and 100%; (compound 10 µM) 83.4% and 22.4% and 90.7%. Moreover, the IC50 (curve of compound) is > 10000 nM and 1570 nM.

Consider `C=CCn1c(=O)c2cnc(Nc3ccc(N4CCN(C)CC4)cc3)nc2n1-c1cccc(C(C)(C)O)n1`, for which the viability, T/C (compound 0.0316 µM) was 94.9% and 110% and 103%; the viability, T/C (compound 0.1 µM) is 92.2% and 91.9% and 92.6%; the viability, T/C (compound 0.316 µM) is 99.1% and 52.3% and 57.8%; the viability, T/C (compound 1 µM) was 125% and 7.26% and 11%.

`CC(C)(O)C1CCC(Nc2ccc3ncc(-c4cccc(C(F)(F)F)c4)n3n2)CC1` (centres undefined): the viability, T/C (compound 0.0316 µM) was 102% and 97.2% and 101%; the viability, T/C (compound 0.1 µM) was 93.2% and 94.8% and 101%; the viability, T/C (compound 0.316 µM) is 95.9% and 90.2% and 100%; the viability, T/C (compound 1 µM) was 89.1% and 67.6% and 76.8%; the viability, T/C (compound 3.16 µM) was 102% and 16.3% and 16.4%; the viability, T/C (compound 10 µM) is 84.3% and 28.2% and 20.7%. Besides, the IC50 (curve of compound) is > 10000 nM and 1560 nM and 1700 nM.

`CCCS(=O)(=O)Nc1ccc(F)c(C(=O)c2c[nH]c3ncc(-c4ccc(Cl)cc4)cc23)c1F`: the viability, T/C runs as follows: (compound 0.0316 µM) 115% (2×) and 92.5%; (compound 0.1 µM) 103% and 94.5% and 95.3%; (compound 0.316 µM) 68.9% and 106% and 108%; (compound 1 µM) 8.17% and 109% and 104%.

`COc1ncnc(C2CC2)c1-c1ncc2cnn(Cc3ccc(-c4nc(C(F)(F)F)cn4C(C)C)cc3)c2n1`: the viability, T/C by setting is: (compound 0.0316 µM) 104% (2×) and 93%; (compound 0.1 µM) 101% and 86% and 90.6%; (compound 0.316 µM) 100% and 59.6% and 104%; (compound 1 µM) 94% and 35.3% and 100%; (compound 3.16 µM) 99.2% and 25.8% and 107%.

As for `O=C(NO)c1cnc(N2CCN(S(=O)(=O)c3ccc4ccccc4c3)CC2)nc1`, the viability, T/C (compound 0.316 µM) is 3.89% and 20.5% and 27.5%; the viability, T/C (compound 1 µM) was 2.64% and 2.67% and 5.87%; the viability, T/C (compound 3.16 µM) is 4.12% and 0.29% and 0.35%; the viability, T/C (compound 10 µM) was 3.42% and 1.01% and 0.1%. For the same compound, for the setting “curve of compound”, the IC50 was < 31.6 nM and 121 nM and 187 nM.

For `CC1COCCN1c1cc(-c2ccnn2C)c2ccnc(-c3ccn[nH]3)c2n1` (centres undefined) + CN(C)c1ccc(Nc2c3ccc(NC(=O)CCN4CCCC4)cc3nc3cc(NC(=O)CCN4CCCC4)ccc23)cc1, the 50% inhibitory concentration (IC50) was 37.2 nM (curve of first compound, second compound 0.0316 µM); 32.2 nM (curve of first compound, second compound 0.1 µM); under 31.6 nM (curve of first compound, second compound 0.316 µM); under 31.6 nM (curve of first compound, second compound 1 µM); under 31.6 nM (curve of first compound, second compound 3.16 µM); under 31.6 nM (curve of first compound, second compound 10 µM). Also, the viability, T/C is, setting by setting: (second compound 0.0316 µM, first compound 0.0316 µM) 57.1%; (second compound 0.0316 µM, first compound 0.1 µM) 6.61%; (second compound 0.0316 µM, first compound 0.316 µM) 3.14%; (second compound 0.0316 µM, first compound 1 µM) 3%; (second compound 0.0316 µM, first compound 3.16 µM) 4.69%; (second compound 0.0316 µM, first compound 10 µM) 8.34%. For the same compound, the viability, T/C was 50.8% (second compound 0.1 µM, first compound 0.0316 µM); 7.66% (second compound 0.1 µM, first compound 0.1 µM); 2.82% (second compound 0.1 µM, first compound 0.316 µM); 3.38% (second compound 0.1 µM, first compound 1 µM); 5.04% (second compound 0.1 µM, first compound 3.16 µM); 7.27% (second compound 0.1 µM, first compound 10 µM). In addition, the viability, T/C by setting is: (second compound 0.316 µM, first compound 0.0316 µM) 46.7%; (second compound 0.316 µM, first compound 0.1 µM) 6.13%; (second compound 0.316 µM, first compound 0.316 µM) 3.67%; (second compound 0.316 µM, first compound 1 µM) 3.77%; (second compound 0.316 µM, first compound 3.16 µM) 5.39%; (second compound 0.316 µM, first compound 10 µM) 7.84%. For the same compound, the viability, T/C reads like this: (second compound 1 µM, first compound 0.0316 µM) 44%; (second compound 1 µM, first compound 0.1 µM) 7.67%; (second compound 1 µM, first compound 0.316 µM) 3.43%; (second compound 1 µM, first compound 1 µM) 3.61%; (second compound 1 µM, first compound 3.16 µM) 4.71%; (second compound 1 µM, first compound 10 µM) 8.81%. Besides, the viability, T/C was 27.2% (second compound 3.16 µM, first compound 0.0316 µM); 6.07% (second compound 3.16 µM, first compound 0.1 µM); 3.25% (second compound 3.16 µM, first compound 0.316 µM); 3.51% (second compound 3.16 µM, first compound 1 µM); 5.21% (second compound 3.16 µM, first compound 3.16 µM); 7.01% (second compound 3.16 µM, first compound 10 µM). Besides, the viability, T/C reads like this: (second compound 10 µM, first compound 0.0316 µM) 12.7%; (second compound 10 µM, first compound 0.1 µM) 7.23%; (second compound 10 µM, first compound 0.316 µM) 4.41%; (second compound 10 µM, first compound 1 µM) 3.59%; (second compound 10 µM, first compound 3.16 µM) 4.61%; (second compound 10 µM, first compound 10 µM) 2.61%.
